Assays:
Assay type in all cases: cell-based
[1] = system: Human dermal fibroblasts from Friedreich's Ataxia patients; test: Rescue of BSO-stressed FRDA fibroblasts (Calcein AM viability); details: BSO-stressed FRDA fibroblasts (GM04078), less than about 150 nM, read-out: EC50, protection against FRDA
Method in brief: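 Patient FRDA fibroblasts (GM04078) seeded at 3,000 cells/well, given serially diluted compound from a 150 μM master solution, then stressed next day with 1 mM BSO.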

[2] = system: human dermal fibroblasts from Huntington's patients; test: Rescue of BSO-stressed fibroblasts from Huntington's patients (screen as Example A); details: Fibroblast, BSO-stressed Huntington's fibroblasts (GM 04281), less than about 150 nM, read-out: EC50, protection against Huntington's
Method in brief: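 Coriell Huntington's line GM 04281 plated at 3,000 cells/well and attached overnight at 37 °C. Survival was read by Calcein AM (1.2 μM, 50-70 min, RT) fluorescence at 485/525 nm, giving EC50.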

[3] = system: human dermal fibroblasts from LHON patients; test: Rescue of BSO-stressed fibroblasts from LHON patients (screen as Example A); details: Fibroblast, BSO-stressed LHON fibroblasts (GM03858), less than about 150 nM, read-out: EC50, protection against LHON
Method in brief: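 LHON patient fibroblasts (Coriell GM03858) at 3,000 cells/well were pre-treated overnight with compounds serially diluted from a 150 μM master solution. Surviving cells were stained with 1.2 μM Calcein AM for 50-70 min at RT and read by fluorescence (485/525 nm), giving EC50.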

[4] = system: human dermal fibroblasts from Parkinson's Disease patients; test: Rescue of BSO-stressed fibroblasts from Parkinson's Disease patients (screen as Example A); details: Fibroblast, BSO-stressed Parkinson's Disease fibroblasts (AG20439), less than about 150 nM, read-out: EC50, protection against PD
Method in brief: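 Dermal fibroblasts from a Parkinson's Disease patient (Coriell AG20439) were plated at 3,000 cells/well, attached overnight and pre-incubated overnight with serially diluted compounds (150 μM master solution). Survival was read by 1.2 μM calcein AM (50–70 min, RT, 485/525 nm fluorescence) and converted to EC50.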

[5] = system: human dermal fibroblasts from CoQ10 deficient patients; test: Rescue of BSO-stressed fibroblasts from CoQ10 deficient patients (screen similar to Example A); details: Fibroblast, BSO-stressed fibroblasts from CoQ10 deficient patients harboring a CoQ2 mutation, less than about 150 nM, read-out: EC50, protection against CoQ10 deficiency
Protocol: A culture with FRDA fibroblasts was started from a 1 ml vial with approximately 500,000 cells stored in liquid nitrogen. Cells were propagated in 10 cm cell culture dishes by splitting every third day in a ratio of 1:3 until nine plates were available. Once confluent, fibroblasts were harvested. For 54 micro titer plates (96 well-MTP) a total of 14.3 million cells (passage eight) were re-suspended in 480 ml medium, corresponding to 100 μl medium with 3,000 cells/well. The remaining cells were distributed in 10 cm cell culture plates (500,000 cells/plate) for propagation. The plates were incubated overnight at 37° C. in an atmosphere with 95% humidity and 5% CO2 to allow attachment of the cells to the culture plate.
MTP medium (243 μl) was added to a well of the microtiter plate. The test compounds were unfrozen, and 7.5 μl of a 5 mM stock solution was dissolved in the well containing 243 μl medium, resulting in a 150 μM master solution. Serial dilutions from the master solution were made. The period between the single dilution steps was kept as short as possible (generally less than 1 second).
Plates were kept overnight in the cell culture incubator. The next day, 10 μl of a 10 mM BSO solution were added to the wells, resulting in a 1 mM final BSO concentration. Forty-eight hours later, three plates were examined under a phase-contrast microscope to verify that the cells in the 0% control (wells E1-H1) were clearly dead. The medium from all plates was discarded, and the remaining liquid was removed by gently tapping the plate inversed onto a paper towel.
100 μl of PBS containing 1.2 μM Calcein AM were then added to each well. The plates were incubated for 50-70 minutes at room temperature. After that time the PBS was discarded, the plate gently tapped on a paper towel and fluorescence (excitation/emission wavelengths of 485 nm and 525 nm, respectively) was read on a Gemini fluorescence reader. Data was imported into Microsoft Excel (EXCEL is a registered trademark of Microsoft Corporation for a spreadsheet program) and used to calculate the EC50 concentration for each compound.
Compounds of the invention were tested using a screen similar to the one described in Example A, but substituting FRDA cells with cells obtained from CoQ10 deficient patients harboring a CoQ2 mutation. The compounds were tested for their ability to rescue human dermal fibroblasts from CoQ10 deficient patients from oxidative stress.

Measured: EC50

CC1=C(C)C(=O)C(CCCC(=O)N2Cc3ccccc3C2)=C(C)C1=O [2-(4-(isoindolin-2-yl)-4-oxobutyl)-3,5,6-trimethylcyclohexa-2,5-diene-1,4-dione]
< 150 nM: all assays above

CC1=C(C)C(=O)C(CCCC(N)=O)=C(C)C1=O [4-(2,4,5-trimethyl-3,6-dioxocyclohexa-1,4-dienyl)butanamide]
< 150 nM: all assays above

CC1=C(C)C(=O)C(CCCC(=O)N(C)c2ccc(Cl)cc2)=C(C)C1=O [N-(4-chlorophenyl)-N-methyl-4-(2,4,5-trimethyl-3,6-dioxocyclohexa-1,4-dienyl)butanamide]
< 150 nM: all assays above

CC1=C(C)C(=O)C(CCCC(=O)Nc2ccccc2)=C(C)C1=O [N-phenyl-4-(2,4,5-trimethyl-3,6-dioxocyclohexa-1,4-dienyl)butanamide]
< 150 nM: all assays above

CC1=C(C)C(=O)C(CCCC(=O)Nc2ccc(C(F)(F)F)cc2)=C(C)C1=O [N-(4-(trifluoromethyl)phenyl)-4-(2,4,5-trimethyl-3,6-dioxocyclohexa-1,4-dienyl)butanamide]
< 150 nM: all assays above

CC1=C(C)C(=O)C(CCCC(=O)Nc2ccc(Cl)cc2N)=C(C)C1=O [N-(2-amino-4-chlorophenyl)-4-(2,4,5-trimethyl-3,6-dioxocyclohexa-1,4-dienyl)butanamide]
< 150 nM: all assays above

CC1=C(C)C(=O)C(CCCC(=O)Nc2ccc3c(c2)OCO3)=C(C)C1=O [N-(benzo[d][1,3]dioxol-5-yl)-4-(2,4,5-trimethyl-3,6-dioxocyclohexa-1,4-dienyl)butanamide]
< 150 nM: all assays above

CC1=C(C)C(=O)C(CCCC(=O)N(Cc2ccccc2)C(C)C)=C(C)C1=O [N-benzyl-N-isopropyl-4-(2,4,5-trimethyl-3,6-dioxocyclohexa-1,4-dienyl)butanamide]
< 150 nM: all assays above

CC1=C(C)C(=O)C(CCCC(=O)NCCc2ccccc2Cl)=C(C)C1=O [N-(2-chlorophenethyl)-4-(2,4,5-trimethyl-3,6-dioxocyclohexa-1,4-dienyl)butanamide]
< 150 nM: all assays above

CC1=C(C)C(=O)C(CCCC(=O)NCCc2ccc(Cl)cc2)=C(C)C1=O [N-(4-chlorophenethyl)-4-(2,4,5-trimethyl-3,6-dioxocyclohexa-1,4-dienyl)butanamide]
< 150 nM: all assays above

CC1=C(C)C(=O)C(CCCC(=O)NCc2ccc(F)cc2)=C(C)C1=O [N-(4-fluorobenzyl)-4-(2,4,5-trimethyl-3,6-dioxocyclohexa-1,4-dienyl)butanamide]
< 150 nM: all assays above

CC1=C(C)C(=O)C(CCCC(=O)N2CCc3ccccc32)=C(C)C1=O [2-(4-(indolin-1-yl)-4-oxobutyl)-3,5,6-trimethylcyclohexa-2,5-diene-1,4-dione]
< 150 nM: all assays above

CC1=C(C)C(=O)C(CCCC(=O)N(C)c2ccccc2)=C(C)C1=O [N-methyl-N-phenyl-4-(2,4,5-trimethyl-3,6-dioxocyclohexa-1,4-dienyl)butanamide]
< 150 nM: all assays above

CC1=C(C)C(=O)C(CCCC(=O)Nc2ccc(F)cc2)=C(C)C1=O [N-(4-fluorophenyl)-4-(2,4,5-trimethyl-3,6-dioxocyclohexa-1,4-dienyl)butanamide]
< 150 nM: all assays above

CC1=C(C)C(=O)C(CCCC(=O)Nc2ccccc2F)=C(C)C1=O [N-(2-fluorophenyl)-4-(2,4,5-trimethyl-3,6-dioxocyclohexa-1,4-dienyl)butanamide]
< 150 nM: all assays above

CC1=C(C)C(=O)C(CCC(C)(C)C(N)=O)=C(C)C1=O [2,2-dimethyl-4-(2,4,5-trimethyl-3,6-dioxocyclohexa-1,4-dienyl)butanamide]
< 150 nM: all assays above

CC1=C(C)C(=O)C(CCCC(=O)N2CCc3ccccc3C2)=C(C)C1=O [2-(4-(3,4-dihydroisoquinolin-2(1H)-yl)-4-oxobutyl)-3,5,6-trimethylcyclohexa-2,5-diene-1,4-dione]
< 150 nM: all assays above

CC1=C(C)C(=O)C(CCCC(=O)Nc2cccc(Cl)c2)=C(C)C1=O [N-(3-chlorophenyl)-4-(2,4,5-trimethyl-3,6-dioxocyclohexa-1,4-dienyl)butanamide]
< 150 nM: all assays above

CCN(Cc1ccccc1)C(=O)CCCC1=C(C)C(=O)C(C)=C(C)C1=O [N-benzyl-N-ethyl-4-(2,4,5-trimethyl-3,6-dioxocyclohexa-1,4-dienyl)butanamide]
< 150 nM: all assays above

CC1=C(C)C(=O)C(CCCC(=O)NCCc2ccc(F)cc2)=C(C)C1=O [N-(4-fluorophenethyl)-4-(2,4,5-trimethyl-3,6-dioxocyclohexa-1,4-dienyl)butanamide]
< 150 nM: all assays above

CC1=C(C)C(=O)C(CCCC(=O)Nc2ccccc2Cl)=C(C)C1=O [N-(2-chlorophenyl)-4-(2,4,5-trimethyl-3,6-dioxocyclohexa-1,4-dienyl)butanamide]
< 150 nM: all assays above

CC1=C(C)C(=O)C(CCCC(=O)NCCc2ccccc2F)=C(C)C1=O [N-(2-fluorophenethyl)-4-(2,4,5-trimethyl-3,6-dioxocyclohexa-1,4-dienyl)butanamide]
< 150 nM: all assays above

CC1=C(C)C(=O)C(CCCC(=O)NCc2ccc(Cl)cc2)=C(C)C1=O [N-(4-chlorobenzyl)-4-(2,4,5-trimethyl-3,6-dioxocyclohexa-1,4-dienyl)butanamide]
< 150 nM: all assays above
